Measured values taken from the kinase profiling compilation of Christmann-Franck et al. (2016).

Tests used:
FES (human) = FES (human) (UniProt P07332); test: Z-Lyte, FRET
ABL2 (human) = ABL2 (human) (UniProt P42684); test: KINOMEscan competition binding; details: compound 10.0 µM
ACVR2A (human) = ACVR2A (human) (UniProt P27037); test: KINOMEscan competition binding; details: compound 10.0 µM
AKT1 (human) = AKT1 (human) (UniProt P31749); test: KINOMEscan competition binding; details: compound 10.0 µM
ANKK1 (human) = ANKK1 (human) (UniProt Q8NFD2); test: KINOMEscan competition binding; details: compound 10.0 µM
Sequence of ANKK1 (human) (Q8NFD2 whole entry, looked up): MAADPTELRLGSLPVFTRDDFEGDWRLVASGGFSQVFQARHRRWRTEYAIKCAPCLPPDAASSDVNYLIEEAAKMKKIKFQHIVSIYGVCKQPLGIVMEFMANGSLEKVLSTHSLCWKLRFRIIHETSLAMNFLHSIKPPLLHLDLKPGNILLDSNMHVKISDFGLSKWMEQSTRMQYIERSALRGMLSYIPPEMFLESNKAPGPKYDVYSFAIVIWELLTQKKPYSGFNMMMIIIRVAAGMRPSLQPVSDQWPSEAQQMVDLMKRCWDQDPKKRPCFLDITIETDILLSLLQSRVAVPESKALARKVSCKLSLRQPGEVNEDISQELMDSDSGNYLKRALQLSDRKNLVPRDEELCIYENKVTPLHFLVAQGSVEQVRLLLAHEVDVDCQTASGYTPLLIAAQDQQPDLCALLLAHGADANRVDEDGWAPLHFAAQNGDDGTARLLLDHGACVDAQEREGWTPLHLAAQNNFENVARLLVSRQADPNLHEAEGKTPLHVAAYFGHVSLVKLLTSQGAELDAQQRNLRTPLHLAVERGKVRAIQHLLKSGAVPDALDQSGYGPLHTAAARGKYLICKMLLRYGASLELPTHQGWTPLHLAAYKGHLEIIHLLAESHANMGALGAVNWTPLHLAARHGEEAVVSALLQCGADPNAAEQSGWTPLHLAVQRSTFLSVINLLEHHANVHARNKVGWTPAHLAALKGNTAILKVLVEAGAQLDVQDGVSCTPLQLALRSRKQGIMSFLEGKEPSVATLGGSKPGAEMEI

AURKA (human) = AURKA (human) (UniProt O14965); test: KINOMEscan competition binding; details: compound 10.0 µM
BMP2K (human) = BMP2K (human) (UniProt Q9NSY1); test: KINOMEscan competition binding; details: compound 10.0 µM
BRSK1 (human) = BRSK1 (human) (UniProt Q8TDC3); test: KINOMEscan competition binding; details: compound 10.0 µM
CAMK1G (human) = CAMK1G (human) (UniProt Q96NX5); test: KINOMEscan competition binding; details: compound 10.0 µM
CAMK2A (human) = CAMK2A (human) (UniProt Q9UQM7); test: KINOMEscan competition binding; details: compound 10.0 µM
CAMK2G (human) = CAMK2G (human) (UniProt Q13555); test: KINOMEscan competition binding; details: compound 10.0 µM
CDC42BPG (human) = CDC42BPG (human) (UniProt Q6DT37); test: KINOMEscan competition binding; details: compound 10.0 µM
CDK15 (human) = CDK15 (human) (UniProt Q96Q40); test: KINOMEscan competition binding; details: compound 10.0 µM
CHEK1 (human) = CHEK1 (human) (UniProt O14757); test: KINOMEscan competition binding; details: compound 10.0 µM
CSF1R (human) = CSF1R (human) (UniProt P07333); test: KINOMEscan competition binding; details: compound 10.0 µM
DCLK1 (human) = DCLK1 (human) (UniProt O15075); test: KINOMEscan competition binding; details: compound 10.0 µM
[1] = tested on: EGFR (human), P00533 [746-750 del]; test: KINOMEscan competition binding; details: compound 10.0 µM
[2] = tested on: EGFR (human), P00533 [G719C]; test: KINOMEscan competition binding; details: compound 10.0 µM
[3] = tested on: EGFR (human), P00533 [L858R]; test: KINOMEscan competition binding; details: compound 10.0 µM
EPHB3 (human) = EPHB3 (human) (UniProt P54753); test: KINOMEscan competition binding; details: compound 10.0 µM
[4] = tested on: FGFR3 (human), P22607 [G697C]; test: KINOMEscan competition binding; details: compound 10.0 µM
Sequence of FGFR3 (human), P22607 [G697C] (P22607 whole entry G697C, looked up): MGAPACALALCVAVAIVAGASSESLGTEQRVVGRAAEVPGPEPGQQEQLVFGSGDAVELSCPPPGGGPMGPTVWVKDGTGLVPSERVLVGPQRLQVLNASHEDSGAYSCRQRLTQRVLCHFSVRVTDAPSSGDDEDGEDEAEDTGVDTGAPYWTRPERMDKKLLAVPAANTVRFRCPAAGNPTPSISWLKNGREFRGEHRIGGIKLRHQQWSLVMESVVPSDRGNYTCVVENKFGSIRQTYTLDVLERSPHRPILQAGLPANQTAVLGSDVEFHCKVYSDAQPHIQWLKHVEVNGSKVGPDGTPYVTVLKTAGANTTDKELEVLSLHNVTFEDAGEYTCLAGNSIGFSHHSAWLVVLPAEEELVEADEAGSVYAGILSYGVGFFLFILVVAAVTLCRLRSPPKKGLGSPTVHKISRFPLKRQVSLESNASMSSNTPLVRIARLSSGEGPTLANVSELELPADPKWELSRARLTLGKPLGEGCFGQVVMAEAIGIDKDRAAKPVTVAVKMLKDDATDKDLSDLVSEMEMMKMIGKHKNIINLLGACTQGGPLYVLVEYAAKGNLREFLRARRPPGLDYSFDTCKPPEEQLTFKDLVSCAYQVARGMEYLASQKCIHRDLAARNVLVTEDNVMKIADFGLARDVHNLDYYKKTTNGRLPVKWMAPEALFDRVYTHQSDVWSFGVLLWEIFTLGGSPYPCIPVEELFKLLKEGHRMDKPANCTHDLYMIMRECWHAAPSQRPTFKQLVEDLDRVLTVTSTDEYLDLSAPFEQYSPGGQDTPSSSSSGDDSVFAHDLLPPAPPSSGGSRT

[5] = tested on: FLT3 (human), P36888 [D835Y]; test: KINOMEscan competition binding; details: compound 10.0 µM
FYN (human) = FYN (human) (UniProt P06241); test: KINOMEscan competition binding; details: compound 10.0 µM
Sequence of FYN (human) (P06241 whole entry, looked up): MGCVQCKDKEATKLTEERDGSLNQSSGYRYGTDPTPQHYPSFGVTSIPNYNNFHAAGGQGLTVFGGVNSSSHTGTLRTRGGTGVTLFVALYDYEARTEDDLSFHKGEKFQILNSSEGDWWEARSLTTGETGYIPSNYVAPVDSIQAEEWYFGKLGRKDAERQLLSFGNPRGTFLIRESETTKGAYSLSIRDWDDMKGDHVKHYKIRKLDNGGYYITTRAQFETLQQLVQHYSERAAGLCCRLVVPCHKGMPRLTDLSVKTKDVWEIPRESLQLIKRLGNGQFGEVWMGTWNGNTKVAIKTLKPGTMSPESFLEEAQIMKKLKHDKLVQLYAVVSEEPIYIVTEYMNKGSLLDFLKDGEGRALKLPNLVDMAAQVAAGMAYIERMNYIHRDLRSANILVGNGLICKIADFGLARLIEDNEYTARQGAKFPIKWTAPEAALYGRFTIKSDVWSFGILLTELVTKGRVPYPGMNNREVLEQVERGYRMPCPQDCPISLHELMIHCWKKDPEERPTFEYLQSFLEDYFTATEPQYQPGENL

IGF1R (human) = IGF1R (human) (UniProt P08069); test: KINOMEscan competition binding; details: compound 10.0 µM
[6] = target: JAK1 JH2 pseudokinase (human) (UniProt P23458); test: KINOMEscan competition binding; details: compound 10.0 µM
Sequence of JAK1 JH2 pseudokinase (human) (P23458 whole entry, looked up): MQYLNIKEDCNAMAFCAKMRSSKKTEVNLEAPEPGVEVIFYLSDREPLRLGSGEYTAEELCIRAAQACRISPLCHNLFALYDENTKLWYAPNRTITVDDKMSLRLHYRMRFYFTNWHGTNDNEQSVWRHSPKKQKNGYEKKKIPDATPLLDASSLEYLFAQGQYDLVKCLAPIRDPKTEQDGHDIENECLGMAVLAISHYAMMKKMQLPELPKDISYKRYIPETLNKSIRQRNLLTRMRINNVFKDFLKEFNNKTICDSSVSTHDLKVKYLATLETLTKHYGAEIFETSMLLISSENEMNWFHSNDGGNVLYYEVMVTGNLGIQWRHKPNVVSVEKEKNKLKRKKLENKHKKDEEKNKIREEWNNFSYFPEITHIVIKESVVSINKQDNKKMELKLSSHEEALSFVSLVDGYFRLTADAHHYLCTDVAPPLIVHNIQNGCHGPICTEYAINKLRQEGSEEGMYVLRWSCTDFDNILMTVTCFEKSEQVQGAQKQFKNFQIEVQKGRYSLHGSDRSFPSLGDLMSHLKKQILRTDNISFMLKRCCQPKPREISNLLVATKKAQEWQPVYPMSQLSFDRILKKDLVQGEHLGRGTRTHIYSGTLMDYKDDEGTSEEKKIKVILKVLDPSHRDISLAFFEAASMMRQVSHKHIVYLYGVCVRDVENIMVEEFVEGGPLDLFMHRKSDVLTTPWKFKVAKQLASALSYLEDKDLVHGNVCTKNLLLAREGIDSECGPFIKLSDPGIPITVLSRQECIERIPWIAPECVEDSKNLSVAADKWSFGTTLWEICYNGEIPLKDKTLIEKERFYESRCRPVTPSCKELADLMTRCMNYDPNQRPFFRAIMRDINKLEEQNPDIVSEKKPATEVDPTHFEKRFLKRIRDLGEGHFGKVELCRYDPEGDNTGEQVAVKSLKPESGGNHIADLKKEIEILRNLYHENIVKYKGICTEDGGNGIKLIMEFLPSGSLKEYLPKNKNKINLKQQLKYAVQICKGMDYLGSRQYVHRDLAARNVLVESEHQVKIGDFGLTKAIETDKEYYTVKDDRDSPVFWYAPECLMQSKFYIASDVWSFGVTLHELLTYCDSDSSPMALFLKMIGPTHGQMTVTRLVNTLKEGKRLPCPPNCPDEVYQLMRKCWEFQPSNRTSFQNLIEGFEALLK

KIT (human) = KIT (human) (UniProt P10721); test: KINOMEscan competition binding; details: compound 10.0 µM
LIMK2 (human) = LIMK2 (human) (UniProt P53671); test: KINOMEscan competition binding; details: compound 10.0 µM
MAP3K5 (human) = MAP3K5 (human) (UniProt Q99683); test: KINOMEscan competition binding; details: compound 10.0 µM
MAP4K3 (human) = MAP4K3 (human) (UniProt Q8IVH8); test: KINOMEscan competition binding; details: compound 10.0 µM
MAPK10 (human) = MAPK10 (human) (UniProt P53779); test: KINOMEscan competition binding; details: compound 10.0 µM
Sequence of MAPK10 (human) (P53779 whole entry, looked up): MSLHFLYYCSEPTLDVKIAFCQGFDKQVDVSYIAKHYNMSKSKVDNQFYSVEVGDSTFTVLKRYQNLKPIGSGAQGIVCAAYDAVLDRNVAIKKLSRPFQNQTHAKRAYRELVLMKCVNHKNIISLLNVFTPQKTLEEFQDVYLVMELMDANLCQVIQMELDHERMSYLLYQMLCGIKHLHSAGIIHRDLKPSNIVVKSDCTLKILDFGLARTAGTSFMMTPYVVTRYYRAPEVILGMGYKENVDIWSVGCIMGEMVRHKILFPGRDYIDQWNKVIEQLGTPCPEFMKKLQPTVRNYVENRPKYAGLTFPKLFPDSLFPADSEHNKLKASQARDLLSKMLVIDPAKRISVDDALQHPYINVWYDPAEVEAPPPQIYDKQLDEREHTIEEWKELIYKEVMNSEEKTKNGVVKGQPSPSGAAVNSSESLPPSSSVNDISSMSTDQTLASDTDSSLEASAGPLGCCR

NLK (human) = NLK (human) (UniProt Q9UBE8); test: KINOMEscan competition binding; details: compound 10.0 µM
Sequence of NLK (human) (Q9UBE8 whole entry, looked up): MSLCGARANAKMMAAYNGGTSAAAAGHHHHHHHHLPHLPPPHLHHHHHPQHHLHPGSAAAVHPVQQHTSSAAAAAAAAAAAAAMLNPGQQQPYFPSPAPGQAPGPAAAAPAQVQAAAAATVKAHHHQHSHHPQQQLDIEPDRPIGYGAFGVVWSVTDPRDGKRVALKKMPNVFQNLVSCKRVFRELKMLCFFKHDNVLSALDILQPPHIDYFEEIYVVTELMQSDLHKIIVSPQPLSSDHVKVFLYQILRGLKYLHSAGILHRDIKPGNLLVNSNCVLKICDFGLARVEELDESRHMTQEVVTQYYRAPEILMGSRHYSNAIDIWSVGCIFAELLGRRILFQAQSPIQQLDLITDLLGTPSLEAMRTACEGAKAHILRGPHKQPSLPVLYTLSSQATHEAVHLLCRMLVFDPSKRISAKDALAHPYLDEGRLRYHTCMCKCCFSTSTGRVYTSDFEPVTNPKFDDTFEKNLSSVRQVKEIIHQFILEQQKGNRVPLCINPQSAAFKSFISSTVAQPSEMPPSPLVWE

PAK6 (human) = PAK6 (human) (UniProt Q9NQU5); test: KINOMEscan competition binding; details: compound 10.0 µM
PIK3CD (human) = PIK3CD (human) (UniProt O00329); test: KINOMEscan competition binding; details: compound 10.0 µM
PRKCD (human) = PRKCD (human) (UniProt Q05655); test: KINOMEscan competition binding; details: compound 10.0 µM
PRKX (human) = PRKX (human) (UniProt P51817); test: KINOMEscan competition binding; details: compound 10.0 µM
PTK6 (human) = PTK6 (human) (UniProt Q13882); test: KINOMEscan competition binding; details: compound 10.0 µM
Sequence of PTK6 (human) (Q13882 whole entry, looked up): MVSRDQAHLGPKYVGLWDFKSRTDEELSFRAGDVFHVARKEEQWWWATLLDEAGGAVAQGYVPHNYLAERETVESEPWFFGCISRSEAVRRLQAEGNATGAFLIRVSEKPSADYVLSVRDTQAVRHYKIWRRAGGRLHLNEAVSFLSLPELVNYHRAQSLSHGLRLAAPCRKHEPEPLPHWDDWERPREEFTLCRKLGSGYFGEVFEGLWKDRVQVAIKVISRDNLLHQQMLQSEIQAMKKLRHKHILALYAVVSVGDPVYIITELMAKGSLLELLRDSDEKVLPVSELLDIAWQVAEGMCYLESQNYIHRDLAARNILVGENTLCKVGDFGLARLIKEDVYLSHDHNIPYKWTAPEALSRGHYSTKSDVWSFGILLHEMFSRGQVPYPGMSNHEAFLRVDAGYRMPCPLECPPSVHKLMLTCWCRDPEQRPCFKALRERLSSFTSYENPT

RIOK3 (human) = RIOK3 (human) (UniProt O14730); test: KINOMEscan competition binding; details: compound 10.0 µM
ROS1 (human) = ROS1 (human) (UniProt P08922); test: KINOMEscan competition binding; details: compound 10.0 µM
RPS6KA5 KD2 (human) = RPS6KA5 KD2 (human) (UniProt O75582); test: KINOMEscan competition binding; details: compound 10.0 µM
STK17B (human) = STK17B (human) (UniProt O94768); test: KINOMEscan competition binding; details: compound 10.0 µM
STK36 (human) = STK36 (human) (UniProt Q9NRP7); test: KINOMEscan competition binding; details: compound 10.0 µM
WEE1 (human) = WEE1 (human) (UniProt P30291); test: KINOMEscan competition binding; details: compound 10.0 µM

CCN1CCN(Cc2ccc(NC(=O)c3ccc(C)c(/C=C/c4cnc(Nc5cc(N6CCNCC6)nc(C)n5)cn4)c3)cc2C(F)(F)F)CC1
IC50 (FES (human)): 224 µM | kinase still bound, per cent of control (ABL2 (human)): 0.7% | kinase still bound, per cent of control (ACVR2A (human)): 100% | kinase still bound, per cent of control (AKT1 (human)): 100% | kinase still bound, per cent of control (ANKK1 (human)): 9.6% | kinase still bound, per cent of control (AURKA (human)): 78% | kinase still bound, per cent of control (BMP2K (human)): 100% | kinase still bound, per cent of control (BRSK1 (human)): 91% | kinase still bound, per cent of control (CAMK1G (human)): 99% | kinase still bound, per cent of control (CAMK2A (human)): 100% | kinase still bound, per cent of control (CAMK2G (human)): 100% | kinase still bound, per cent of control (CDC42BPG (human)): 100% | kinase still bound, per cent of control (CDK15 (human)): 53% | kinase still bound, per cent of control (CHEK1 (human)): 82% | kinase still bound, per cent of control (CSF1R (human)): 1.1% | kinase still bound, per cent of control (DCLK1 (human)): 97% | kinase still bound, per cent of control [1]: 17% | kinase still bound, per cent of control [2]: 1.8% | kinase still bound, per cent of control [3]: 3.4% | kinase still bound, per cent of control (EPHB3 (human)): 100% | kinase still bound, per cent of control [4]: 23% | kinase still bound, per cent of control [5]: 3.2% | kinase still bound, per cent of control (FYN (human)): 4.6% | kinase still bound, per cent of control (IGF1R (human)): 87% | kinase still bound, per cent of control [6]: 94% | kinase still bound, per cent of control (KIT (human)): 0.15% | kinase still bound, per cent of control (LIMK2 (human)): 9.6% | kinase still bound, per cent of control (MAP3K5 (human)): 100% | kinase still bound, per cent of control (MAP4K3 (human)): 0.9% | kinase still bound, per cent of control (MAPK10 (human)): 54% | kinase still bound, per cent of control (NLK (human)): 65% | kinase still bound, per cent of control (PAK6 (human)): 91% | kinase still bound, per cent of control (PIK3CD (human)): 50% | kinase still bound, per cent of control (PRKCD (human)): 100% | kinase still bound, per cent of control (PRKX (human)): 100% | kinase still bound, per cent of control (PTK6 (human)): 91% | kinase still bound, per cent of control (RIOK3 (human)): 78% | kinase still bound, per cent of control (ROS1 (human)): 100% | kinase still bound, per cent of control (RPS6KA5 KD2 (human)): 73% | kinase still bound, per cent of control (STK17B (human)): 2% | kinase still bound, per cent of control (STK36 (human)): 0.1% | kinase still bound, per cent of control (WEE1 (human)): 100%

COc1cc(N2CCC(N3CCN(C)CC3)CC2)ccc1Nc1ncc(Cl)c(Nc2ccccc2S(=O)(=O)C(C)C)n1
kinase still bound, per cent of control (ABL2 (human)): 1.4% | kinase still bound, per cent of control (ACVR2A (human)): 12% | kinase still bound, per cent of control (AKT1 (human)): 40% | kinase still bound, per cent of control (ANKK1 (human)): 40% | kinase still bound, per cent of control (AURKA (human)): 0% | kinase still bound, per cent of control (BMP2K (human)): 2.8% | kinase still bound, per cent of control (BRSK1 (human)): 1.2% | kinase still bound, per cent of control (CAMK2A (human)): 1.2% | kinase still bound, per cent of control (CAMK2G (human)): 2% | kinase still bound, per cent of control (CDC42BPG (human)): 23% | kinase still bound, per cent of control (CHEK1 (human)): 0% | kinase still bound, per cent of control (CSF1R (human)): 0% | kinase still bound, per cent of control (DCLK1 (human)): 0% | kinase still bound, per cent of control [1]: 0% | kinase still bound, per cent of control [3]: 0.1% | kinase still bound, per cent of control (EPHB3 (human)): 18% | kinase still bound, per cent of control [4]: 0.25% | kinase still bound, per cent of control (FYN (human)): 5.6% | kinase still bound, per cent of control (IGF1R (human)): 0% | kinase still bound, per cent of control [6]: 4.2% | kinase still bound, per cent of control (KIT (human)): 0.1% | kinase still bound, per cent of control (LIMK2 (human)): 6.5% | kinase still bound, per cent of control (MAP3K5 (human)): 40% | kinase still bound, per cent of control (MAP4K3 (human)): 2.5% | kinase still bound, per cent of control (MAPK10 (human)): 2.6% | kinase still bound, per cent of control (NLK (human)): 40% | kinase still bound, per cent of control (PAK6 (human)): 13% | kinase still bound, per cent of control (PIK3CD (human)): 40% | kinase still bound, per cent of control (PRKCD (human)): 28% | kinase still bound, per cent of control (PRKX (human)): 28% | kinase still bound, per cent of control (PTK6 (human)): 0.15% | kinase still bound, per cent of control (RIOK3 (human)): 3.2% | kinase still bound, per cent of control (ROS1 (human)): 0.45% | kinase still bound, per cent of control (RPS6KA5 KD2 (human)): 40% | kinase still bound, per cent of control (STK17B (human)): 40% | kinase still bound, per cent of control (STK36 (human)): 5.8% | kinase still bound, per cent of control (WEE1 (human)): 17%

CCN1CCN(Cc2ccc(NC(=O)c3ccc(C)c(Oc4ccnc5[nH]ccc45)c3)cc2C(F)(F)F)CC1
IC50 (FES (human)): 298 µM | kinase still bound, per cent of control (ABL2 (human)): 0.6% | kinase still bound, per cent of control (ANKK1 (human)): 23% | kinase still bound, per cent of control (CAMK1G (human)): 20% | kinase still bound, per cent of control (CDK15 (human)): 6% | kinase still bound, per cent of control (CSF1R (human)): 0% | kinase still bound, per cent of control [1]: 8.4% | kinase still bound, per cent of control [2]: 12% | kinase still bound, per cent of control [3]: 14% | kinase still bound, per cent of control [4]: 16% | kinase still bound, per cent of control [5]: 14% | kinase still bound, per cent of control (FYN (human)): 1.6% | kinase still bound, per cent of control [6]: 11% | kinase still bound, per cent of control (KIT (human)): 0% | kinase still bound, per cent of control (MAP4K3 (human)): 18% | kinase still bound, per cent of control (MAPK10 (human)): 12% | kinase still bound, per cent of control (NLK (human)): 14% | kinase still bound, per cent of control (PTK6 (human)): 28% | kinase still bound, per cent of control (STK36 (human)): 0.2%
